Laboratory results from article PMC7216583 (Parasites & Vectors, 2020).
pIC50, pKi: −log10 of the molar value. Structures can show the parent of a compound that is named as a salt. Where two headings read alike, the source gives them in different places.

Tests used:
c-Kit [1] = tested on: c-Kit; design: method as in S-inhibitor catalog; settings: vendor brief description; ref S-inhibitor catalog; cited from earlier work
Syk = tested on: Syk; design: method as in S-inhibitor; settings: ref S-inhibitor; cited from earlier work
in vitro = settings: human; for viability at 72 h: Host viability (%) mean
Aurora B = tested on: Aurora B; design: method as in S-inhibitor catalog; settings: vendor brief description; ref S-inhibitor catalog; cited from earlier work
Aurora C [2] = tested on: Aurora C; design: method as in S-inhibitor catalog; settings: vendor brief description; ref S-inhibitor catalog; cited from earlier work
[3] = tested on: Toxoplasma gondii RH-2F tachyzoites; experiment: microbe, parasite or virus in culture; settings: 72 h
HDAC [4] = tested on: HDAC; design: method as in S-inhibitor catalog; settings: vendor brief description; ref S-inhibitor catalog; cited from earlier work
mTOR = tested on: mTOR; design: method as in S-inhibitor; settings: ref S-inhibitor; cited from earlier work
CYP17 = tested on: CYP17; design: method as in S-inhibitor catalog; settings: vendor brief description; ref S-inhibitor catalog; cited from earlier work
VEGFR2 [5] = tested on: VEGFR2; design: method as in S-inhibitor catalog; settings: vendor brief description; ref S-inhibitor catalog; cited from earlier work
HIV protease = biological target: HIV protease; design: method as in S-inhibitor; settings: ref S-inhibitor; cited from earlier work
Aurora A = tested on: Aurora A; design: method as in S-inhibitor; settings: ref S-inhibitor; cited from earlier work
VEGFR2 [6] = tested on: VEGFR2; design: method as in S-inhibitor; settings: ref S-inhibitor; cited from earlier work
c-Met = tested on: c-Met; design: method as in S-inhibitor; settings: ref S-inhibitor; cited from earlier work
CDK7 = tested on: CDK7; design: method as in S-inhibitor; settings: ref S-inhibitor; cited from earlier work
VEGFR2 [7] = tested on: VEGFR2; design: method as in library vendor description; settings: ref library vendor description; cited from earlier work
Flt1 = tested on: Flt1; design: method as in library vendor description; settings: ref library vendor description; cited from earlier work
Flt4 = tested on: Flt4; design: method as in library vendor description; settings: ref library vendor description; cited from earlier work
Ret = tested on: Ret; design: method as in library vendor description; settings: ref library vendor description; cited from earlier work
Aurora C [8] = tested on: Aurora C; design: method as in library vendor description; settings: ref library vendor description; cited from earlier work
VEGFR3 = tested on: VEGFR3; design: method as in library vendor description; settings: ref library vendor description; cited from earlier work
PDGFRβ = tested on: PDGFRβ; design: method as in library vendor description; settings: ref library vendor description; cited from earlier work
PI3Kδ = tested on: PI3Kδ; design: method as in library vendor description; settings: ref library vendor description; cited from earlier work
Abl = tested on: Abl; design: method as in S-inhibitor; settings: ref S-inhibitor; read-out: IC50, Abl; cited from earlier work
HDAC [9] = tested on: HDAC; design: method as in S-inhibitor; settings: ref S-inhibitor; cited from earlier work
c-Kit [10] = tested on: c-Kit; design: method as in library vendor description; settings: ref library vendor description; cited from earlier work
PDGFR = settings: read-out: IC50 PDGFR; ref library vendor description; cited from earlier work
HDAC8 = tested on: HDAC8; design: method as in S-inhibitor; settings: ref S-inhibitor; cited from earlier work
EGFR = tested on: EGFR; design: method as in library vendor description; settings: ref library vendor description; cited from earlier work
FGFR1 = tested on: FGFR1; design: method as in library vendor description; settings: ref library vendor description; cited from earlier work
S6K1 = tested on: S6K1; design: method as in S-inhibitor; settings: ref S-inhibitor; cited from earlier work
VEGFR1 = tested on: VEGFR1; design: method as in library vendor description; settings: ref library vendor description; cited from earlier work
[11] = tested on: Toxoplasma gondii RH-2F tachyzoites; settings: 5 μM, 72 h
OX1 = biological target: OX1; design: method as in S-inhibitor; settings: ref S-inhibitor, cited from earlier work
p110β = tested on: p110β; design: method as in S-inhibitor; settings: ref S-inhibitor; cited from earlier work
p110γ = tested on: p110γ; design: method as in S-inhibitor; settings: ref S-inhibitor; cited from earlier work
CCR5 = settings: ref S-inhibitor, cited from earlier work
[12] = read-out: Parasite inhibition (%) mean, preliminary screen of compound library, mean
[13] = read-out: Parasite inhibition (%) mean, preliminary screen, mean

CN1CCN(c2ccc3nc(-c4c(N)c5c(F)cccc5[nH]c4=O)[nH]c3c2)CC1
pIC50 (c-Kit [1]): 8.70

Cc1csc(-c2nnc(Nc3ccc(Oc4ncccc4-c4ccnc(N)n4)cc3)c3ccccc23)c1 [AMG 900]
viability at 72 h (in vitro): 33.6%
pIC50 (Aurora B): 8.40
pIC50 (Aurora C [2]): 9.00
inhibition of growth at 5 µM [3, 12]: 85.9%

CC(C)[C@H](C(=O)Nc1ccc(C(=O)NO)cc1)c1ccccc1 [AR-42 (HDAC-42)]
pIC50 (HDAC [4]): 7.52
inhibition of growth at 5 µM [3, 12]: 61%

COc1ccc(-c2ccc3c(N4CCOC[C@@H]4C)nc(N4CCOC[C@@H]4C)nc3n2)cc1CO [AZD8055]
pIC50 (mTOR): 9.10
inhibition of growth at 5 µM [3, 13]: 45.7%

CC(=O)O[C@H]1CC[C@@]2(C)C(=CC[C@H]3[C@H]2CC[C@]2(C)C(c4cccnc4)=CC[C@@H]32)C1 [Abiraterone Acetate (CB7630)]
pIC50 (CYP17): 7.14
inhibition of growth at 5 µM [3, 12]: 0.7%

N#CC1(c2ccc(NC(=O)c3cccnc3NCc3ccncc3)cc2)CCCC1 [Apatinib (YN968D1)]
viability at 72 h (in vitro): 63.8%
pIC50 (VEGFR2 [5]): 9.00
inhibition of growth at 5 µM [3, 12]: 77.6%

COC(=O)N[C@H](C(=O)N[C@@H](Cc1ccccc1)[C@@H](O)CN(Cc1ccc(-c2ccccn2)cc1)NC(=O)[C@@H](NC(=O)OC)C(C)(C)C)C(C)(C)C [Atazanavir sulfate]
viability (in vitro): 90.7%
pKi (HIV protease): 8.58
inhibition of growth at 5 µM [3, 13]: 93.6%

CCN1CCN(C(=O)Cc2ccc(Nc3ncc(F)c(Nc4ccc(C(=O)Nc5ccccc5Cl)cc4)n3)cc2)CC1 [Aurora A Inhibitor I]
pIC50 (Aurora A): 8.47
inhibition of growth at 5 µM [3, 13]: 60.8%

Nc1nccc(Oc2ccc(NC(=O)c3c[nH]cc(-c4ccc(F)cc4)c3=O)cc2F)c1Cl [BMS 794833]
viability at 72 h (in vitro): 70.6%
pIC50 (VEGFR2 [6]): 7.82
pIC50 (c-Met): 8.77
inhibition of growth at 5 µM [3, 13]: 88.4%

CC(C)c1cnn2c(NCc3ccccc3)cc(NCCCCCCN)nc12 [BS-181 HCl]
pIC50 (CDK7): 7.68
inhibition of growth at 5 µM [3, 13]: 5.7%

Cc1cc(CN2CCN(c3c(Br)cnc4[nH]c(-c5ccc(N6CCN(C)CC6)cc5)nc34)CC2)no1 [CCT137690]
viability at 72 h (in vitro): 78.6%
pIC50 (Aurora B): 7.60
pIC50 (Aurora C [2]): 7.72
inhibition of growth at 5 µM [3, 12]: 86.1%

COc1cc2c(Oc3ccc4[nH]c(C)cc4c3F)ncnc2cc1OCCCN1CCCC1 [Cediranib (AZD2171)]
pIC50 (VEGFR2 [7]): 9.30
pIC50 (Flt1): 8.30
pIC50 (Flt4): ≥ 8.52
inhibition of growth at 5 µM [3, 13]: 0.4%

CO[C@@H](C(=O)N1Cc2n[nH]c(NC(=O)c3ccc(N4CCN(C)CC4)cc3)c2C1)c1ccccc1 [Danusertib (PHA-739358)]
viability at 72 h (in vitro): 78.8%
pIC50 (Ret): 7.51
pIC50 (Aurora C [8]): 7.21
inhibition of growth at 5 µM [3, 13]: 77.5%

CN1CCN(c2ccc3nc(-c4c(N)c5c(F)cccc5[nH]c4=O)[nH]c3c2)CC1 [Dovitinib (TKI-258)]
pIC50 (PDGFRβ): 7.57
inhibition of growth at 5 µM ([3]; read-out: Parasite inhibition (%) mean): -12.9%

CCn1cc(-c2ccnc3[nH]c(-c4cccc(CN(C)C)c4)cc23)c(-c2ccc(NC(=O)N(C)C)cc2)n1 [GSK1070916]
viability at 72 h (in vitro): 67.7%
pIC50 (Aurora C [2]): 8.19
inhibition of growth at 5 µM [3, 12]: 79.9%

C[C@]12CC[C@H](O)CC1=CCC1C2CC[C@]2(C)C(n3cnc4ccccc43)=CCC12 (stereo partly drawn) [Galeterone (TOK-001)]
pIC50 (CYP17): 6.52
inhibition of growth at 5 µM [3, 12]: 0.4%

Cc1ccccc1-n1c(Cn2cnc3c(N)ncnc32)nc2cccc(C)c2c1=O [IC-87114]
inhibition of growth at 5 µM [3, 13]: 11.1%

O=C(c1ccc(/C=C/c2n[nH]c3ccccc23)cc1)N1CCNCC1 [KW 2449]
viability at 72 h (in vitro): 55.6%
pIC50 (Aurora A): 7.32
pIC50 (Abl): 7.85
inhibition of growth at 5 µM [3, 13]: 70.2%

Cc1cccc(C)c1OCC(=O)N[C@@H](Cc1ccccc1)[C@@H](O)C[C@H](Cc1ccccc1)NC(=O)[C@H](C(C)C)N1CCCNC1=O [Lopinavir (ABT-378)]
pKi (HIV protease): 11.89
inhibition of growth at 5 µM [3, 13]: 0.9%

CN(C)c1ccc(C(=O)NCCCCCCC(=O)NO)cc1 [M344]
pIC50 (HDAC [4]): 7.00
inhibition of growth at 5 µM [3, 12]: 44.6%

Cn1cc(/C=C/C(=O)c2cccc(F)c2)cc1/C=C/C(=O)NO [MC1568]
pIC50 (HDAC [9]): 6.66
inhibition of growth at 5 µM [3, 13]: 35.4%

Cc1ccc(NC(=O)c2ccc(CN3CCN(C)CC3)cc2)cc1Nc1nc(-c2cccnc2)cs1 [Masitinib (AB1010)]
inhibition of growth at 5 µM [3, 13]: 10.5%

CC1(C)CNc2cc(NC(=O)c3cccnc3NCc3ccncc3)ccc21 [Motesanib Diphosphate (AMG-706)]
pIC50 (c-Kit [10]): 8.10
pIC50 (PDGFR): 7.08
inhibition of growth at 5 µM [3, 13]: -36.6%

COc1ccc(Cn2ccc3ccc(C(=O)NO)cc32)cc1 [PCI-34051]
pIC50 (HDAC8): 8.00
inhibition of growth at 5 µM [3, 13]: 5.7%

COc1cc2ncnc(Nc3cccc(Br)c3)c2cc1OC [PD153035 HCl]
inhibition of growth at 5 µM [3, 13]: -9.7%

CCN(CC)CCCCNc1ncc2cc(-c3cc(OC)cc(OC)c3)c(NC(=O)NC(C)(C)C)nc2n1 [PD173074]
viability at 72 h (in vitro): 58.8%
pIC50 (VEGFR2 [7]): 6.70 to 7.00
inhibition of growth at 5 µM [3, 13]: 76.8%

CCc1cncnc1N1CCN(Cc2nc3cc(C(F)(F)F)ccc3[nH]2)CC1 [PF-4708671]
pIC50 (S6K1): 6.80
pKi (S6K1): 7.70
inhibition of growth at 5 µM [3, 13]: 60.6%

Cc1ccc(Nc2nccc(N(C)c3ccc4c(C)n(C)nc4c3)n2)cc1S(N)(=O)=O [Pazopanib HCl]
pIC50 (VEGFR1): 8.00
pIC50 (PDGFR): 7.08
inhibition of growth at 5 µM [3, 13]: -2.6%

COc1cc(Nc2ncc(F)c(Nc3ccc4c(n3)NC(=O)C(C)(C)O4)n2)cc(OC)c1OC [R406 (free base)]
pIC50 (Syk): 7.39

CCCCc1nc2cc(/C=C/C(=O)NO)ccc2n1CCN(CC)CC [SB939 (Pracinostat)]
pIC50 (HDAC [9]): 6.85 to 7.40
inhibition of growth at 5 µM [3, 13]: 34.6%

Cc1cc(NC(=O)Nc2ccc(N(C)C)cc2)c2cc(F)cc(F)c2n1 [SB-408124, reference compound]
effect on T. gondii growth in the screen [11]: no effect on T. gondii growth
pKi (OX1; membrane): 7.57
pKi (OX1; whole cell): 7.24
inhibition of growth at 5 µM [3, 13]: -80.4%

O=C(Nc1cccc(Cl)c1)Nc1ncc(CCNc2ncnc3ccsc23)s1 [SNS-314 Mesylate]
viability at 72 h (in vitro): 32.9%
pIC50 (Aurora C [8]): 8.47
inhibition of growth at 5 µM [3, 13]: 79.4%

CCN(CC)CCNC(=O)c1c(C)[nH]c(/C=C2\C(=O)Nc3ccc(F)cc32)c1C [Sunitinib Malate (Sutent)]
inhibition of growth at 5 µM [3, 13]: 7.5%

Clc1ccc(Nc2nnc(Cc3ccncc3)c3ccccc23)cc1 [Vatalanib 2HCl (PTK787)]
pIC50 (c-Kit [10]): 6.14
inhibition of growth at 5 µM [3, 13]: -6.6%

COc1cc(Nc2nc3ccccc3nc2NS(=O)(=O)c2ccc(NC(=O)c3ccc(C)c(OC)c3)cc2)cc(OC)c1 [XL765 (SAR245409)]
pIC50 (mTOR): 6.80
pIC50 (p110β): 6.95
pIC50 (p110γ): 8.05
inhibition of growth at 5 µM [3, 13]: 46.6%

Maraviroc
pIC50 (CCR5; read-out: IC50, CCR5, MIP-1α, MIP-1α): 8.48
pIC50 (CCR5; read-out: IC50, CCR5, MIP-1β, MIP-1β): 8.14
pIC50 (CCR5; read-out: IC50, CCR5, RANTES, RANTES): 8.28
